Assay results as given in PubChem BioAssay (NCI).
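GI50 is the concentration that inhibits growth by half. TGI: concentration producing complete growth inhibition.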

Experiments:
Test in all cases: NCI-60 cell line screen, 384-well format
[1] = tested on: SF-268 CNS
[2] = tested on: EKVX NSCLC
[3] = tested on: NCI-H522 lung
[4] = tested on: SK-MEL-2 melanoma
[5] = tested on: NCI-H322M lung
[6] = tested on: SF-295 CNS
[7] = tested on: MOLT-4 leukemia
[8] = tested on: SN12C renal
[9] = tested on: SF-539 CNS
[10] = tested on: HL-60(TB) leukemia
[11] = tested on: ACHN renal
[12] = tested on: DU-145 prostate
[13] = tested on: MDA-MB-435 melanoma
[14] = tested on: A549 NSCLC
[15] = tested on: BT-549 breast
[16] = tested on: HT29 colon
[17] = tested on: SK-MEL-5 melanoma
[18] = tested on: MALME-3M melanoma
[19] = tested on: CCRF-CEM leukemia
[20] = tested on: RXF 393 renal
[21] = tested on: SR leukemia
[22] = tested on: UACC-62 melanoma
[23] = tested on: UACC-257 melanoma
[24] = tested on: SK-OV-3 ovarian
[25] = tested on: NCI-H23 lung
[26] = tested on: OVCAR-3 ovarian
[27] = tested on: T-47D breast
[28] = tested on: A498 renal
[29] = tested on: SW-620 colon
[30] = tested on: SNB-19 CNS
[31] = tested on: OVCAR-8 ovarian
[32] = tested on: KM12 colon
[33] = tested on: HCC-2998 colon
[34] = tested on: HCT-15 colon
[35] = tested on: MDA-MB-231 breast
[36] = tested on: HS 578T breast
[37] = tested on: MDA-MB-468 breast
[38] = tested on: PC-3 prostate
[39] = tested on: OVCAR-4 ovarian
[40] = tested on: NCI-H226 lung
[41] = tested on: HOP-62 NSCLC
[42] = tested on: 786-0 renal
[43] = tested on: NCI/ADR-RES ovarian
[44] = tested on: U251 glioblastoma
[45] = tested on: M14 melanoma
[46] = tested on: SK-MEL-28 melanoma
[47] = tested on: OVCAR-5 ovarian
[48] = tested on: HOP-92 NSCLC
[49] = tested on: IGROV1 ovarian
[50] = tested on: NCI-H460 NSCLC
[51] = tested on: SNB-75 CNS
[52] = tested on: CAKI-1 renal
[53] = tested on: MCF7 breast
[54] = tested on: RPMI-8226 leukemia
[55] = tested on: COLO 205 colon
[56] = tested on: TK-10 renal

## C=C1C(=O)OC(CCCCCCCC)C1C(=O)O (configuration not stated)
[1]
  GI50: 19 µM
  TGI: 37 µM
[2]
  GI50: 20.4 µM
  TGI: 37.7 µM
[3]
  GI50: 6.51 µM
  TGI: 19.2 µM
[4]
  GI50: 28.7 µM
  TGI: 46.6 µM
[5]
  GI50: 24.3 µM
  TGI: 50.3 µM
[6]
  GI50: 23.5 µM
  TGI: 57.5 µM
[7]
  GI50: 14.6 µM
  TGI: 27.9 µM
[8]
  GI50: 19 µM
  TGI: 36.1 µM
[9]
  GI50: 20.1 µM
  TGI: 34.9 µM
[10]
  GI50: 13.5 µM
  TGI: 26.4 µM
[11]
  GI50: 21.4 µM
  TGI: 39.3 µM
[12]
  GI50: 17.4 µM
  TGI: 31.5 µM
[13]
  GI50: 23.3 µM
  TGI: 44 µM
[14]
  GI50: 20.9 µM
  TGI: 41.8 µM
[15]
  GI50: 14.8 µM
  TGI: 38.3 µM
[16]
  GI50: 23.4 µM
  TGI: 49.4 µM
[17]
  GI50: 18.3 µM
  TGI: 32.5 µM
[18]
  GI50: 15.5 µM
  TGI: 29.2 µM
[19]
  GI50: 12.2 µM
  TGI: 24.8 µM
[20]
  GI50: 11.5 µM
  TGI: 24.1 µM
[21]
  GI50: 3.03 µM
  TGI: 9.89 µM
[22]
  GI50: 33.9 µM
  TGI: > 100 µM
[23]
  GI50: 12.7 µM
  TGI: 27.3 µM
[24]
  GI50: 23.6 µM
  TGI: 45.2 µM
[25]
  GI50: 14 µM
  TGI: 27.6 µM
[26]
  GI50: 12.8 µM
  TGI: 26.2 µM
[27]
  GI50: 18.2 µM
  TGI: 32.3 µM
[28]
  GI50: 22.1 µM
  TGI: 45.5 µM
[29]
  GI50: 18.7 µM
  TGI: 33.2 µM
[30]
  GI50: 22.4 µM
  TGI: 47.3 µM
[31]
  GI50: 24.9 µM
  TGI: 54.9 µM
[32]
  GI50: 14.6 µM
  TGI: 28.2 µM
[33]
  GI50: 20.6 µM
  TGI: 35.2 µM
[34]
  GI50: 19.4 µM
  TGI: 37.1 µM
[35]
  GI50: 30.3 µM
  TGI: > 100 µM
[36]
  GI50: 12.2 µM
  TGI: 25.5 µM
[37]
  GI50: 3.04 µM
  TGI: 6.75 µM
[38]
  GI50: 21 µM
  TGI: 39.1 µM
[39]
  GI50: 16.9 µM
  TGI: 32.1 µM
[40]
  GI50: 27.9 µM
  TGI: 49.7 µM
[41]
  GI50: 12.9 µM
  TGI: 28.6 µM
[42]
  GI50: 16.7 µM
  TGI: 31.6 µM
[43]
  GI50: 22.3 µM
  TGI: 46.2 µM
[44]
  GI50: 20.6 µM
  TGI: 37.9 µM
[45]
  GI50: 17.8 µM
  TGI: 34.5 µM
[46]
  GI50: 23.3 µM
  TGI: 46.8 µM
[47]
  GI50: 39.3 µM
  TGI: > 100 µM
[48]
  GI50: 19.8 µM
  TGI: 41.1 µM
[49]
  GI50: 19.2 µM
  TGI: 37.4 µM
[50]
  GI50: 17.1 µM
  TGI: 31.3 µM
[51]
  GI50: 16.1 µM
  TGI: 32.1 µM
[52]
  GI50: 16.5 µM
  TGI: 30.7 µM
[53]
  GI50: 21.1 µM
  TGI: 39.6 µM
[54]
  GI50: 10.3 µM
  TGI: 22.1 µM
[55]
  GI50: 25.5 µM
  TGI: 40.4 µM
[56]
  GI50: 34.3 µM
  TGI: > 100 µM
